Assay results as given in patent US20170216240A1, “METHODS FOR MODULATING IKS CHANNEL ACTIVITY” (UNIVERSITY OF MIAMI, priority 2014, published 2017).

Legend:
[1] = test system: intact guinea pig hearts; assay: Restoration of QT interval in intact hearts with E4031-induced Long QT; settings: ECG and ventricular surface action potential
From the text: Long QT syndrome was induced in intact guinea pig hearts by administration of the drug E4031, a HERG channel blocker.

[2] = in vitro; settings: human, Caco-2
[3] = biological target: T1, Kv7.1/KCNE1 (Homo sapiens, UniProt P51787); assay: G(V) shift of Kv7.1 co-expressed with KCNE1 in Xenopus oocytes, two-electrode voltage-clamp; assay type: cell-based; settings: 70 μM, pH 7.4; for ΔV1/2 ± SEM (G(V) shift): Kv7.1/E1
T1 construct: expressed in transfected cells; host or cells: Xenopus laevis oocytes (cRNA co-injection)
From the text: (§1) cDNAs encoding human Kv7.1 (GEnBAnk Acc. No. NM_000218) and KCNE1 (NM_000219) were subcloned into the expression vectors pGEM or pXOOM, containing the 5′- and 3′-untranslated regions for Xenopus laevis β-globin as well as a poly-A segment (Jespersen et al., Biotechniques 32, 536-538, 540 (2002)). The truncated KCNE1 construct KCNE1ΔC was constructed by introducing a Stop codon at position 67 using Quikchange site-directed mutagenesis kit (Qiagen). The construct was fully sequenced to ensure proper mutation and absence of unwanted mutations (sequencing by Genewiz). The concatemers E1-Kv7.1-Kv7.1 and E1-Kv7.1 were provided by Dr. R. S. Kass at Columbia University, and can be prepared as described in Chan et al. Journal of General Physiology 132(2), 135-144, (2012)). The E1-Kv7.1 construct was made by linking the C-terminus of KCNE1 to the N-terminus of KCNQ1. The E1-Kv7.1-Kv7.1 construct was made by digesting the E1-Kv7.1 and a Kv7.1-Kv7.1 dimer with Xho1 and inserting the 2-kb fragment from the Kv7.1-Kv7.1 dimer digest into the cut KCNE1-Kv7.1 construct. The DNA encoding E1-Kv7.1-Kv7.1 and E1-Kv7.1 were in the pGEM vector and contained mutations to make the constructs suitable for voltage-clamp fluorometry recordings (Wang et al., J Biol Chem 273, 34069-34074 (1998)). The original KCNE1 and Kv7.1 sequences were therefore removed, one at a time, from the pGEM vector using different restriction enzymes (New England Biolabs). Sequences were separated using gel electrophoresis and harvested using Qiagen gel extraction kit. Corresponding wild type sequences were ligated into the construct using T4 Ligase (New England Biolabs). To ensure correct sequence the constructs were sequenced (Genewiz) and tested with different restriction enzymes in combination with gel electrophoresis to measure length and conformation of the gene. cRNA for injection of all constructs was prepared from linearized DNA using the T7 mMessage mMachine transcription kit (Ambion) according to the manufactures instructions. RNA quality was checked by gel electrophoresis, and RNA concentrations were quantified by UV spectroscopy.
(§2) Xenopus laevis oocytes were isolated and maintained (Bentzen, B. H. et al. Neuropharmacology 51, 1068-1077 (2006)). Approximately 50 nl cRNA (50 ng Kv7.1, KCNE1-Kv7.1-Kv7.1 or KCNE1-Kv7.1 alternatively 25 ng Kv7.1 together with 8 ng KCNE1 or KCNE1ΔC) was injected into each oocyte using a Nanojet microinjector (Drummond). Electrophysiological experiments were made 2-5 days after injection. Currents were measured at room temperature with the two-electrode voltage-clamp technique (CA-1B Dagan amplifier). Currents were sampled at 1-3.3 kHz, filtered at 500 Hz, and not leakage corrected. […] A control solution containing (in mM): 88 NaCl, 1 KCl, 15 HEPES, 0.4 CaCl2, and 0.8 MgCl2 was used. NaOH was added to adjust pH to 7.4, yielding a final sodium concentration of about 100 mM. The holding voltage was generally set to −80 mV. Activation curves were generally elicited by stepping to test voltages between −110 and +60 mV (2-4 s durations and 10 mV increments) followed by a tail voltage of −30 mV. For recordings of Kv7.1 at pH 9 and pH 10, the holding voltage was set to more negative voltages because the largest DHA-induced shifts induced channel opening already at −80 mV. […] Therefore, in arachidonyl amine experiments a brief hyperpolarizing pulse of 50 ms to −120 mV was introduced between the test voltage and the tail voltage to relief the channels from inactivation.
(§3) Test compounds were dissolved in 99.5% ethanol to a concentration of 100 mM and stored at −20° C. (Börjesson et al., Biophys J 95, 2242-2253 (2008); Börjesson et al., Biophys J 98, 396-403 (2010)). Shortly before experiments, test compounds were diluted in control solution to the desired test concentration. Pure control solution was added to the bath using a gravity-driven perfusion system. […]

[4] = test system: Caco-2 cells
[5] = biological target: Kv7.1 (Homo sapiens, UniProt P51787); assay: G(V) shift of Kv7.1 expressed in Xenopus laevis oocytes, two-electrode voltage-clamp; assay type: cell-based; settings: Kv7.1, 70 μM, pH 7.4
From the text: as §1, §2, §3

[6] = listed as N-arachidonoyl taurine

CCCCC/C=C\C/C=C\C/C=C\C/C=C\CCCC(=O)NCCS(=O)(=O)O [N-AT, N-arachidonoyl taurine]
QT interval in hearts with prolonged QT induced by E4031 [1]: restores the QT interval | efflux ratio [2]: 1.9 | ΔV1/2 ± SEM (G(V) shift) [3]: about −30 mV | ΔV1/2 ± SEM (G(V) shift) [3, 6]: about −30 mV | ΔV1/2 ± SEM (G(V) shift) ([3]; listed as N—AT): −27.0 ± 2.5 mV | G(V) shift of a representative cell (control curve shifted) ([3]; Kv7.1/KCNE1): −24 mV | permeability coefficient (Papp) [4]: 22×10^−6 cms^−1 | ΔV1/2 ± SEM (G(V) shift) [5, 6]: about −30 mV | ΔV1/2 ± SEM (G(V) shift) ([5]; listed as N—AT): −26.2 ± 2.7 mV
